Laboratory results from US20040259853A1, “Methods for preventing acute clinical vascular events in a subject” (The Trustees of Columbia University, priority 2000, published 2004).

Legend:
[1] = system: ABCA1-independent efflux to HDL2; test: 3H-cholesterol efflux to HDL2 from free cholesterol-loaded macrophages; type: cell-based, mouse; conditions: 70 nM, FC-loaded macrophages (FIG. 12B)
Protocol: Acetyl-LDL (800 μg) was incubated with 10 μCi ^3H-cholesterol for 30 min at 37° C., followed by addition of 8 ml of DMEM, 0.2% BSA. The macrophages were incubated with this medium for 5 h, washed 3 times with PBS, and then incubated with DMEM, 0.2% BSA for 15 min at 37° C. After washing with PBS, the macrophages were incubated with DMEM, 0.2% BSA, containing either 15 μg/ml apoAI or 20 μg/ml HDL2. At the indicated time points, 100 μl of media was removed and centrifuged for 5 min at 14,000 rpm to pellet cellular debris. The radioactivity in this fraction of media was quantitated by liquid scintillation counting. After the last time point, the remainder of the media was removed, and the cells were dissolved in 0.5 ml of 0.1 N NaOH containing 0.5% sodium dodecylsulfate (5 h at room temperature). A 100 μl-aliquot of the cell lysate was counted, and the percent efflux was calculated as (media cpm)[…](cell +media cpm)×100. Total protein in the cell lysate was determined using the Bio-Rad DC protein assay kit. Note that there was no statistical difference in cellular cpm or protein between cholesteryl ester- and free cholesterol-loaded macrophages.

ABCA1 protein = test: ABCA1 immunoblot of total and cell-surface protein in cholesterol-loaded macrophages; type: cell-based, mouse
Protocol: Macrophages were pre-incubated for 14 h with 50 μg/ml acetyl-LDL in DMEM, 0.2% BSA, in the absence (CE) or presence (FC) of 58035. The cells were then incubated for 5 h with 100 μg/ml acetyl-LDL in DMEM, 0.2% BSA, in the absence or presence of 58035, respectively, with no further additions (Control) or in the presence of 10 μg/ml cycloheximide, 50 μM ALLN, or 50 μM lactacystin as indicated. Aliquots of cell lysates were then assayed for ABCA1 and β-actin protein by immunoblot analysis.
Macrophages were pre-incubated for 14 h with 50 μg/ml acetyl-LDL in DMEM, 0.2% BSA, in the absence (CE) or presence (FC) of 58035. […] Aliquots of total cell protein (top panel) or cell-surface protein (bottom panel) were then subjected to immunoblot analysis for ABCA1 and the standards β-actin or β1-integrin.
Macrophage monolayers in 35-mm dishes were washed with ice-cold PBS 3 times and then incubated with ice-cold PBS containing 0.5 mg/ml NHS—SS-biotin (Pierce) for 30 minutes at 4° C. After washing 5 times with ice-cold PBS containing 20 mM Tris-HCl, pH 8.0, the cells were scraped into PBS and pelleted by centrifugation. The pelleted macrophages were lysed in 50 μl RIPA buffer (0.5% sodium deoxycholate, 0.1% SDS, 1% Triton X-100, 20 mM Tris, 150 mM NaCl, and 5 mM EDTA, pH 8) containing 1 mM PMSF. […] of the lysate were subjected directly to 4-20% gradient SDS-polyacrylamide gel electrophoresis (SDS-PAGE) for determination of total ABCA1. The rest of the cell lysate was affinity-purified to isolate biotinylated proteins. Briefly, the cell lysates were diluted to 150 μl in RIPA buffer and incubated with 50 μl immobilized streptavidin agarose (Pierce), which was pre-washed three times with RIPA buffer at 0° C. for 2 h with gentle shaking. The agarose was pelleted by centrifugation using a microcentrifuge at 5,000 rpm for 2 min; the pellet was resuspended in 1 ml RIPA buffer, and the process was repeated 5 times. The agarose was resuspended 30 μl SDS-PAGE loading buffer containing 330 mM β-mercaptoethanol at 37^6C for 15 min and subjected to SDS-PAGE as above. ABCA1 and β-integrin were detected by Western blot using anti-ABCA1 and anti-β-integrin anti-sera. The blots were reprobed with anti-β-actin antibody, which detected no actin signal, thus verifying that no cytosolic protein was biotinylated by the procedure.
Peritoneal macrophages were lysed in RIPA buffer containing 1 mM PMSF. Nuclei were removed by centrifugation at 3000×g for 10 min at 4° C. […] For Western blot detection of ABCA1, anti-ABCA1 antiserum was used. Signals were detected using HRP-conjugated secondary anti-bodies (Bio-Rad) and ECL (Amersham Pharmacia Biotech). The membranes were reprobed with anti-β actin monoclonal antibody or anti-β1-integrin anti-serum for the proper internal controls. The relative intensities of the bands were determined by densitometry.

[2] = system: LDL receptor knockout mice; test: In vivo efficacy in LDL receptor knockout mouse model of atherosclerosis; conditions: 0.75 mg/kg/d
Protocol: Plasma was assayed for total cholesterol.
Asteriks denote statistically significant differences between drug and control groups (p<0.05 by the Student's t test).

ER calcium stores = test: Assay of ER calcium pools (Fura-2, thapsigargin release); type: cell-based, mouse; conditions: 70 nM, acetyl-LDL + 58035, 2.5 h (FIG. 18B)
Protocol: Shown are representative tracings of the 340/380-nm Fura-2 fluorescence ratio in an individual macrophage from each treatment group before and after addition of 1 μM thapsigargin.
Untreated or cholesterol-loaded macrophages on 25-mm coverslip-containing microscopy dishes were loaded with 4 μM Fura-2 μM (Molecular Probes) and 0.08% Pluronic F-127 in Hank's buffered saline solution (HBSS) at room temperature for 30 min. The monolayers were then washed twice with HBSS, incubated with HBSS for an additional 30 min and mounted on the stage of an inverted Nikon diaphot microscope equipped with a 40× objective. Sulfinpyrazone (250 μM) was included in all solutions to prevent excretion of the Fura-2 by the macrophages. Fluorescence images (510-nm emission following alternate 340-nm and 380-nm excitation) were collected through a charge-coupled device camera (Photon Technology International), and the 340:380 ratio of individual cells in these images was calculated.
Cells exposed to U18666A alone or culture media with no additives served as further control groups. […] Thapsigargin treatment results in emptying of ER calcium stores into the cytosol, which was quantified by fluorescence microscopy, providing a measure of releasable ER calcium stores at the time of thapsigargin addition.

[3] = system: mouse peritoneal macrophages; conditions: very low doses; reference 22; cited from earlier work
[4] = system: unfolded protein response (UPR); conditions: very low doses; reference 22; cited from earlier work
[5] = system: unfolded protein response (UPR); test: Immunoblot analysis of UPR markers (CHOP, PERK, IRE1α, XBP-1) in macrophages
Protocol: For detection of PERK, nuclei-free cell extracts were immunoprecipitated with anti-PERK antiserum and then immunoblotted, while for detection of ATF-4 and CHOP, immunoblots were performed on nuclear extracts. Lamin B, a nuclear protein, was used as the loading control.
Immunoprecipitation and immunoblot detection for IRE1α and PERK were conducted as described by Harding et al. (35). Immunoblot analyses of XBP-1, ATF4, and CHOP were carried out as described previously (36,38) with minor modifications. Briefly, cells were lysed in RIPA buffer to prepare whole-cell lysates or to prepare nuclei by centrifugation. The whole-cell lysates or nuclei were resuspended in 2×SDS-PAGE loading buffer and incubated at 95° C. for 10 min. Whole cell (100 μg) or nuclear lysates (20 μg) were electrophoresed on 4-20% gradient SDS-PAGE gels and electrotransferred to 0.22-μm nitrocellulose membrane using a Bio-Rad mini-transfer tank. After incubation with primary antibodies, the protein bands were detected with HRP-conjugated secondary antibodies (Bio-Rad) and ECL (Amersham Pharmacia Biotech). The membranes were reprobed with an anti-β-actin monoclonal antibody or an anti-lamin B serum to control for differences in loading.

CCN(CC)CCO[C@H]1CC[C@@]2(C)C(=CC[C@@H]3[C@@H]2CC[C@]2(C)C(=O)CC[C@@H]32)C1 [U18666A, 3-β-[2-(diethylamino)ethoxy]androst-5-en-17-one]
ABCA1-independent efflux (to HDL2) [1]: improved | ABCA1 protein loss in free cholesterol-loaded cells (total protein) (ABCA1 protein; 70 nM (FIG. 13, top panel)): protected from the ABCA1 protein loss | decrease of cell-surface ABCA1 protein (ABCA1 protein; 70 nM, FC-loaded cells (FIG. 13, bottom panel), 60% in untreated cells): about 15% | ABCA1 protein expression in free cholesterol-loaded cells (ABCA1 protein; low concentrations): markedly enhance | plasma HDL cholesterol versus vehicle ([2]; 12 weeks (FIG. 14B)): similar | atherosclerotic lesion area, proximal aorta ([2]; 12 weeks (FIG. 14C), p<0.05): marked reduction | acellular area, proximal aorta ([2]; 12 weeks (FIG. 14D), p<0.05): marked reduction | lipid core area, proximal aorta ([2]; 12 weeks (FIG. 14E), p<0.05): marked reduction | plasma total cholesterol versus vehicle ([2]; 12 weeks, cholesterol and saturated fat diet (FIG. 14A)): similar | FC-loading-induced depletion of ER calcium stores (smaller thapsigargin-induced rise) (ER calcium stores): completely prevented | block of apoptosis in FC-loaded cultured macrophages [3]: almost completely | block of UPR activation in FC-loaded cultured macrophages [4]: almost completely | IRE1α activation and XBP-1 expression in FC-loaded macrophages ([5]; low dose (70 nM) (FIG. 16D, lane 5)): markedly attenuated both events | CHOP induction in FC-loaded macrophages ([5]; low dose (70 nM), 5 h (FIG. 16A, lane 5)): attenuated CHOP induction | PERK activation in FC-loaded macrophages ([5]; low dose (70 nM), 5 h (FIG. 16B, lane 5)): blocked PERK activation
